From patent publication US20190101551A1, “Real-time and Continuous Measurement in Vivo Using Aptamer-Based Biosensors” (The Regents of the University of California, priority 2016, published 2019)

Columns and labels:
[1] = Continuous real-time in vivo measurement of drug levels in blood with membrane-protected EAB sensors in the jugular vein of rats; conditions: anesthetized Sprague-Dawley rats, after each injection
Procedure: All in vivo measurements were performed using a two-electrode setup in which the reference and counter electrodes were a silver wire coated with a silver chloride film as described above. The measurements carried out in vivo were recorded using a handheld potentiostat.
In vivo Experiments Animals. Adult male Sprague-Dawley rats (300-500 g) were pair housed in a temperature and humidity controlled vivarium on a 12-h light-dark cycle and provided ad libitum access to food and water. All animal procedures were consistent with the guidelines of the NIH Guide for Care and Use of Laboratory Animals.
Surgery. For the anesthetized preparation, rats were anesthetized using isoflurane gas inhalation (2.5%) and monitored throughout the experiment using a pulse oximeter to measure heart rate and % SpO2 to insure depth of anesthesia. After exposing both ventral jugular veins, a simple catheter made from a [sequence] tube (Dow Corning, Midland, Mich., USA) fitted with a steel cannula was implanted into the left jugular vein. 0.1-0.3 mL of heparin (1000 U/mL) were immediately infused through the catheter to prevent blood clotting. The sensor was inserted into the right jugular vein and secured in place with surgical suture.
Measurements. A 30-minute sensor baseline was established before the first drug infusion. For anesthetized animals, a 3 mL syringe filled with the target drug was connected to the sensor-free catheter (placed in the jugular opposite that in which the sensor is emplaced) and placed in a motorized syringe pump. After establishing a stable baseline, the target drug was infused through this catheter at a rate of 0.2 mL/min. Target drugs included kanamycin (0.1 M solution), gentamicin (10 mg/mL), tobramycin (0.1 M solution), and doxorubicin (1.0 mM). After drug infusion, recordings were taken for up to 2 hours before the next infusion.
Sensors were fabricated using an aptamer recognizing the aminoglycoside antibiotics. Using these sensors, monotonically increasing intravenous doses of kanamycin were administered spanning the therapeutic ranges used in humans (10-30 mg/kg) and animals (25-30 mg/kg).
The pharmacokinetics of tobramycin were monitored following sequential 20 mg/kg intravenous injections conducted 2 hours apart in each of three rats.

[2] = in vivo; conditions: male, Sprague-Dawley, rat
[3] = male, Sprague-Dawley, rat, in vivo, iv

COc1cccc2c1C(=O)c1c(O)c3c(c(O)c1C2=O)C[C@@](O)(C(=O)CO)C[C@@H]3O[C@H]1C[C@H](N)[C@H](O)[C@H](C)O1 [DOX, doxorubicin]
time to effective clearance of 90% of the drug from the circulatory system [1]: ≤ 50 min | Cmax [2]: ~600 nM

NC[C@H]1O[C@H](O[C@H]2[C@H](O)[C@@H](O[C@H]3O[C@H](CO)[C@@H](O)[C@H](N)[C@H]3O)[C@H](N)C[C@@H]2N)[C@H](O)[C@@H](O)[C@@H]1O [kanamycin]
maximum concentrations depending on the delivered dose [3]: 34 to 400 µM | maximum concentration observed ([3]; 10 mg/kg): 200 µM
